Source: patent US10752612B2, “PLK4 inhibitors” (LUDWIG INSTITUTE FOR CANCER RESEARCH LTD, priority 2015, dated 2020)
Several values for one entry are separate records, joined by “and”; a condition that tells them apart may be missing. Identical values can stand only once.

Key:
RPE1 cells = assay: Passaging assay and flow cytometry, RPE1; assay type: cell-based, human; details: RPE1, addition Day 0, washout Day 8
Method: Passaging assays. Cells were seeded into 10 cm tissue culture plates at 150,000 (HeLa, NIH/3T3 and RPE1) or 200,000 cells/plate (primary fibroblasts). Compounds were added at the indicated concentrations. At 4-day intervals, cells were harvested, counted using a TC10 cell counter, and re-seeded into new plates at the densities above. Results are from 2 independent experiments.
Flow cytometry. Cells were seeded into 15 cm tissue culture plates such that each plate was 50-80% confluent at the time of harvesting. Cells were de-adhered by trypsinization and pelleted in 15 ml tubes by centrifugation. Each pellet was resuspended in 0.3 mL PBS, and 0.7 mL ice-cold 100% ethanol was added to the tube while gently vortexing. Fixed cells were stored at 4° C. for up to 2 weeks. For DNA content analysis, fixed cells were pelleted, washed twice with PBS, and resuspended in 0.5 mL PBS+2% BSA and Alexa488-conjugated anti-p-H3(Ser10) antibody. Samples were incubated for 1 hour at 4° C., then washed twice with PBS+2% BSA. Pellets were resuspended in 1 mL PBS+2% BSA, 10 μg/ml propidium iodide (Sigma-Aldrich), 500 µg/ml RNAse A (Thermo Scientific). Samples were incubated at 37° C. for 30 minutes, then transferred to 12×75 mm tubes for analysis. Data were acquired using FACSDiva software on a LSR II flow cytometer (BD Biosciences). 50,000 cells were analyzed per condition. Cell cycle fitting was performed using ModFit LT (Verity Software House).

p53 = assay: Western blotting, RPE1; assay type: cell-based, human
Method: Western blotting. […] Cell extracts were stored at −80° C. until use.
For p53, p-p53(S33), p-p53(S392), p-p38(T180/Y182), acetyl-p53(K382), LATS2, YAP, MDM2, MAPKAPK-2 and GFP, blocking and antibody incubations were performed in TBS-T+5% non-fat dry milk. For p-YAP(S127), p-p53(S9), p-p53(S15), p-p53(S20), p-p53(S37), p-p53(S315), p21 and p-MAPKAPK-2(T334), blocking and antibody incubations were performed in TBS-T+5% BSA. Detection was performed using HRP-conjugated secondary antibodies (GE Healthcare) with WesternBright Sirius (Advansta) or SuperSignal West Femto (Thermo Scientific) substrates. Membranes were imaged on a ChemiDoc MP system (Bio-Rad). Membranes were stripped and reprobed with antibodies against α-tubulin or GAPDH as loading controls.

p38 = details: RPE1, osmotic stress
Method: MAPKAPK-2 activation assay. RPE1 cells on 10 cm plates were treated with DMSO or 10 μM SB203580 for 2 hours prior to induction of stress.
Western blotting. Asynchronously growing cells from 10 cm plates were harvested at 50-80% confluence and lysed by sonication in RIPA buffer+protease and phosphatase inhibitor cocktail (Thermo Scientific). Cell extracts were stored at −80° C. until use. Before use, concentrations of extracts were normalized using a Bio-Rad Protein Assay (Bio-Rad). For every sample, 25-50 μg protein/lane was run on Mini-PROTEAN gels (Bio-Rad), and transferred to PVDF membranes using a TransBlot Turbo system (Bio-Rad).

[1] = target: T1, human Plk4 kinase domain (aa 2-275) (Homo sapiens, UniProt O00444); assay: Plk4 kinase assay (ADP-Glo); assay type: biochemical
T1 construct: purified 6×His-tagged human Plk4 kinase domain (aa 2-275); 6xHis; made in house; host or cells: E. coli
T1 sequence (O00444 2-275): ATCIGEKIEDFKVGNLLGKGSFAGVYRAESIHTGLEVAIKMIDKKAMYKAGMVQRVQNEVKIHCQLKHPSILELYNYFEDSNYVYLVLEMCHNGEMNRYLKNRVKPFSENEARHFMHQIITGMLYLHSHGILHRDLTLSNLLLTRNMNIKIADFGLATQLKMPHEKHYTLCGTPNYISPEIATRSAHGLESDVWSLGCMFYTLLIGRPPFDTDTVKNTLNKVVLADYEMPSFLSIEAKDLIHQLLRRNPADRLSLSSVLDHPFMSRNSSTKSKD
Summary of the method: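 Enzyme at 2.5-10 nM final, pH 8.0, reacted 4-16 hours at 25° C; ADP generation read by ADP-Glo luminescence. Ki derived from IC50 by Cheng-Prusoff or, for tight binders, Copeland formalism.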

[2] = target: T2, inhibitor-resistant mutant Plk4 (G95L) (Homo sapiens, UniProt O00444, G95L); assay: Plk4 (G95L) mutant kinase assay; assay type: biochemical
T2 construct: Plk4 assays used equal volumes of: (1) purified 6×His-tagged human Plk4 kinase domain (aa 2-275); 6xHis; made in house; host or cells: E. coli
Method: Kinase assays. […] Reactions were allowed to proceed for 4-16 hours at 25° C. Detection was performed using ADP-Glo reagent (Promega), following manufacturer's instructions. Luminescence was measured on an Infinite M1000 plate reader (Tecan). Data were fit using Prism (GraphPad) and Kis were calculated from IC50 data using the Cheng and Prusoff equation (37) or the Copeland formalism for tight-binding inhibitors (38).

human Aurora A = target: T3, human Aurora A (Homo sapiens, UniProt O14965); assay: Aurora A kinase assay (ADP-Glo); assay type: biochemical
T3 construct: purchased Millipore
T3 sequence (O14965 1-403): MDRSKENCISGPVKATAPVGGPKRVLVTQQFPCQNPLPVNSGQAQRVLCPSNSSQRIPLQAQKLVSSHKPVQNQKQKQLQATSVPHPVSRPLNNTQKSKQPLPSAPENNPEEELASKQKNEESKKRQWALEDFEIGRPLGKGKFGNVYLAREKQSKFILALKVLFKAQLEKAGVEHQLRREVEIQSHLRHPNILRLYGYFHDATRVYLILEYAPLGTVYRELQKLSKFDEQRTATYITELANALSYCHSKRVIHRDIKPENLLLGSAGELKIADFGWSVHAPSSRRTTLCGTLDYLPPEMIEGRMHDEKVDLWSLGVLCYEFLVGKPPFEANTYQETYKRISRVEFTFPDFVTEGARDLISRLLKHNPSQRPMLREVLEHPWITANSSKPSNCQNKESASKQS
Method: LRRASLG)+inhibitors arrayed in dose response (added as described above). […] Detection, measurement and data analysis were performed as described above.

Aurora B = target: T4, Aurora B (Homo sapiens, UniProt Q96GD4); assay: Aurora B radiometric kinase assay (Reaction Biology); assay type: biochemical
T4 construct: Reaction Biology (Malvern, Pa.), contract assay
Method: Aurora B and other radiometric kinase assays were performed by Reaction Biology (Malvern, Pa.).

TNK1 = target: T5, TNK1 (Homo sapiens, UniProt Q13470); assay: Radiometric kinase assay, off-target TNK1; assay type: biochemical
T5 construct: Reaction Biology (Malvern, Pa.), contract assay
T5 sequence (Q13470 1-666): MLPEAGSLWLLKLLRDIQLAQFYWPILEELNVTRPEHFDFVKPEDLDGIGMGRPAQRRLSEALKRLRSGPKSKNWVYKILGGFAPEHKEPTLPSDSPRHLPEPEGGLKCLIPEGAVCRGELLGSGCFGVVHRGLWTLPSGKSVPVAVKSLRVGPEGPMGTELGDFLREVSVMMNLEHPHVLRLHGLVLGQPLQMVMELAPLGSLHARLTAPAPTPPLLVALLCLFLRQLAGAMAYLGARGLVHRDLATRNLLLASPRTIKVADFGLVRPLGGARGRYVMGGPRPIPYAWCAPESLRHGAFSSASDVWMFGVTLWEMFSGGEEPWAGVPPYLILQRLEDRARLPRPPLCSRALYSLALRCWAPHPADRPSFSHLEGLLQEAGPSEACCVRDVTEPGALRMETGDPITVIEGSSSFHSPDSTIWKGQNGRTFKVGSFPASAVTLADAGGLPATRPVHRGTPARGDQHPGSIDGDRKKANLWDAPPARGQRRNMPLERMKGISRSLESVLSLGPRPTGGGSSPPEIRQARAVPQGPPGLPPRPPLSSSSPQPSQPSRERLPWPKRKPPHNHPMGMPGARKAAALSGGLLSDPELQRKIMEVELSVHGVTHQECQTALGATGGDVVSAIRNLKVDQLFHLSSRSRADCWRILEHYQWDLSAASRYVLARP
Method: (§1) Aurora B and other radiometric kinase assays were performed by Reaction Biology (Malvern, Pa.). Kinome profiling of centrinone and centrinone-B was performed by DiscoveRx (San Diego, Calif.).

LRRK2 = target: T6, LRRK2 (Homo sapiens, UniProt Q5S007); assay: Radiometric kinase assay, off-target LRRK2; assay type: biochemical
T6 construct: Reaction Biology (Malvern, Pa.), contract assay
Method: as §1

ROS/ROS1 = ROS/ROS1 (Homo sapiens, UniProt P08922); assay: Radiometric kinase assay, off-target ROS/ROS1; assay type: biochemical
Method: as §1

FLT4/VEGFR3 = FLT4/VEGFR3 (Homo sapiens, UniProt P35916); assay: Radiometric kinase assay, off-target FLT4/VEGFR3; assay type: biochemical
Method: as §1

RET = target: T7, RET (Homo sapiens, UniProt P07949); assay: Radiometric kinase assay, off-target RET; assay type: biochemical
T7 construct: Reaction Biology (Malvern, Pa.), contract assay
Method: as §1

JAK2 = target: T8, JAK2 (Homo sapiens, UniProt O60674); assay: Radiometric kinase assay, off-target JAK2; assay type: biochemical
T8 construct: Reaction Biology (Malvern, Pa.), contract assay
Method: as §1

SRPK1 = target: T9, SRPK1 (Homo sapiens, UniProt Q96SB4); assay: Radiometric kinase assay, off-target SRPK1; assay type: biochemical
T9 construct: Reaction Biology (Malvern, Pa.), contract assay
Method: as §1

centrosomes in cells = assay: Cellular centrosome depletion (cell line not stated); assay type: cell-based; details: cellular activity, FIG. 1A
Method: Centriole depletion assay for compound screening. 1,500 NIH/3T3 cells or 3,500 HCT116 cells were seeded into 96-well SCREENSTAR microplates (Greiner) and treated with inhibitors in dose response, added from DMSO stocks. After 3 days, cells were fixed directly in the wells with 100% methanol (−20° C., 10 minutes). The fixed cells were washed with PBS and stained with primary antibodies against γ-tubulin and, for a subset of compounds, Cep192. Cells were then stained with Alexa-488 donkey anti-mouse and Alexa-647 goat anti-rabbit secondary antibodies. Cells were imaged using either a Model 500 LumaScope (Etaluma) or an EVOS FL (Advanced Microscopy Group/Life Technologies), and centriole depletion was determined by scoring the percentage of cells without visible γ-tubulin/Cep192 foci.

[3] = off-target from DiscoveRx kinome profiling

T8 sequence (O60674 whole entry): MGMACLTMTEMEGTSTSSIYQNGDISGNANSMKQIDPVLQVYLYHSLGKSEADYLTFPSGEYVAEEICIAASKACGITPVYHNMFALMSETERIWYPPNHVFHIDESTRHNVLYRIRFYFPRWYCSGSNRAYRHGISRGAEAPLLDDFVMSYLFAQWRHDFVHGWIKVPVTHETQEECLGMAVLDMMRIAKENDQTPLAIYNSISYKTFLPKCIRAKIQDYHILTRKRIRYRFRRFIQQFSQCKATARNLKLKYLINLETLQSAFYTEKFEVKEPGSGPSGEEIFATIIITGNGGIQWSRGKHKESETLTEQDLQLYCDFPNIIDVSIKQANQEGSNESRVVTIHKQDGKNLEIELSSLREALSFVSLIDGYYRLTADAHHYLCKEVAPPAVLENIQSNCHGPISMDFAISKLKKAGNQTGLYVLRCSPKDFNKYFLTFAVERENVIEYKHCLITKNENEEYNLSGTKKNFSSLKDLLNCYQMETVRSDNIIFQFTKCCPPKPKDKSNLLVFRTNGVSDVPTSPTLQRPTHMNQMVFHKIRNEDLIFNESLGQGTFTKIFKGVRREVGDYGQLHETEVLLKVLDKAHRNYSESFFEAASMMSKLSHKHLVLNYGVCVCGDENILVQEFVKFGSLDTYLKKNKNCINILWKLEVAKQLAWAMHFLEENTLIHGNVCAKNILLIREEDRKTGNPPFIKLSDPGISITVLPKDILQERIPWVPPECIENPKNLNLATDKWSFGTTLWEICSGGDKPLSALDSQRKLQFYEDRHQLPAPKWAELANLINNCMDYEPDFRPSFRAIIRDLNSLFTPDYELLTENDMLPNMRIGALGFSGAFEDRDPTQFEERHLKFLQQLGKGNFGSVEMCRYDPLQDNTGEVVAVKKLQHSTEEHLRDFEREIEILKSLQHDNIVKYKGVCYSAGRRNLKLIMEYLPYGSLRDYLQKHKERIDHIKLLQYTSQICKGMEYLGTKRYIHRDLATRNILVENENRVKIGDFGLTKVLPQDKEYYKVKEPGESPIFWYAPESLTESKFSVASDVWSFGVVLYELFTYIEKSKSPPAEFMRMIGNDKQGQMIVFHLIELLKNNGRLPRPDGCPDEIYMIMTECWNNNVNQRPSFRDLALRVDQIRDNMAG
T6 sequence (Q5S007 whole entry): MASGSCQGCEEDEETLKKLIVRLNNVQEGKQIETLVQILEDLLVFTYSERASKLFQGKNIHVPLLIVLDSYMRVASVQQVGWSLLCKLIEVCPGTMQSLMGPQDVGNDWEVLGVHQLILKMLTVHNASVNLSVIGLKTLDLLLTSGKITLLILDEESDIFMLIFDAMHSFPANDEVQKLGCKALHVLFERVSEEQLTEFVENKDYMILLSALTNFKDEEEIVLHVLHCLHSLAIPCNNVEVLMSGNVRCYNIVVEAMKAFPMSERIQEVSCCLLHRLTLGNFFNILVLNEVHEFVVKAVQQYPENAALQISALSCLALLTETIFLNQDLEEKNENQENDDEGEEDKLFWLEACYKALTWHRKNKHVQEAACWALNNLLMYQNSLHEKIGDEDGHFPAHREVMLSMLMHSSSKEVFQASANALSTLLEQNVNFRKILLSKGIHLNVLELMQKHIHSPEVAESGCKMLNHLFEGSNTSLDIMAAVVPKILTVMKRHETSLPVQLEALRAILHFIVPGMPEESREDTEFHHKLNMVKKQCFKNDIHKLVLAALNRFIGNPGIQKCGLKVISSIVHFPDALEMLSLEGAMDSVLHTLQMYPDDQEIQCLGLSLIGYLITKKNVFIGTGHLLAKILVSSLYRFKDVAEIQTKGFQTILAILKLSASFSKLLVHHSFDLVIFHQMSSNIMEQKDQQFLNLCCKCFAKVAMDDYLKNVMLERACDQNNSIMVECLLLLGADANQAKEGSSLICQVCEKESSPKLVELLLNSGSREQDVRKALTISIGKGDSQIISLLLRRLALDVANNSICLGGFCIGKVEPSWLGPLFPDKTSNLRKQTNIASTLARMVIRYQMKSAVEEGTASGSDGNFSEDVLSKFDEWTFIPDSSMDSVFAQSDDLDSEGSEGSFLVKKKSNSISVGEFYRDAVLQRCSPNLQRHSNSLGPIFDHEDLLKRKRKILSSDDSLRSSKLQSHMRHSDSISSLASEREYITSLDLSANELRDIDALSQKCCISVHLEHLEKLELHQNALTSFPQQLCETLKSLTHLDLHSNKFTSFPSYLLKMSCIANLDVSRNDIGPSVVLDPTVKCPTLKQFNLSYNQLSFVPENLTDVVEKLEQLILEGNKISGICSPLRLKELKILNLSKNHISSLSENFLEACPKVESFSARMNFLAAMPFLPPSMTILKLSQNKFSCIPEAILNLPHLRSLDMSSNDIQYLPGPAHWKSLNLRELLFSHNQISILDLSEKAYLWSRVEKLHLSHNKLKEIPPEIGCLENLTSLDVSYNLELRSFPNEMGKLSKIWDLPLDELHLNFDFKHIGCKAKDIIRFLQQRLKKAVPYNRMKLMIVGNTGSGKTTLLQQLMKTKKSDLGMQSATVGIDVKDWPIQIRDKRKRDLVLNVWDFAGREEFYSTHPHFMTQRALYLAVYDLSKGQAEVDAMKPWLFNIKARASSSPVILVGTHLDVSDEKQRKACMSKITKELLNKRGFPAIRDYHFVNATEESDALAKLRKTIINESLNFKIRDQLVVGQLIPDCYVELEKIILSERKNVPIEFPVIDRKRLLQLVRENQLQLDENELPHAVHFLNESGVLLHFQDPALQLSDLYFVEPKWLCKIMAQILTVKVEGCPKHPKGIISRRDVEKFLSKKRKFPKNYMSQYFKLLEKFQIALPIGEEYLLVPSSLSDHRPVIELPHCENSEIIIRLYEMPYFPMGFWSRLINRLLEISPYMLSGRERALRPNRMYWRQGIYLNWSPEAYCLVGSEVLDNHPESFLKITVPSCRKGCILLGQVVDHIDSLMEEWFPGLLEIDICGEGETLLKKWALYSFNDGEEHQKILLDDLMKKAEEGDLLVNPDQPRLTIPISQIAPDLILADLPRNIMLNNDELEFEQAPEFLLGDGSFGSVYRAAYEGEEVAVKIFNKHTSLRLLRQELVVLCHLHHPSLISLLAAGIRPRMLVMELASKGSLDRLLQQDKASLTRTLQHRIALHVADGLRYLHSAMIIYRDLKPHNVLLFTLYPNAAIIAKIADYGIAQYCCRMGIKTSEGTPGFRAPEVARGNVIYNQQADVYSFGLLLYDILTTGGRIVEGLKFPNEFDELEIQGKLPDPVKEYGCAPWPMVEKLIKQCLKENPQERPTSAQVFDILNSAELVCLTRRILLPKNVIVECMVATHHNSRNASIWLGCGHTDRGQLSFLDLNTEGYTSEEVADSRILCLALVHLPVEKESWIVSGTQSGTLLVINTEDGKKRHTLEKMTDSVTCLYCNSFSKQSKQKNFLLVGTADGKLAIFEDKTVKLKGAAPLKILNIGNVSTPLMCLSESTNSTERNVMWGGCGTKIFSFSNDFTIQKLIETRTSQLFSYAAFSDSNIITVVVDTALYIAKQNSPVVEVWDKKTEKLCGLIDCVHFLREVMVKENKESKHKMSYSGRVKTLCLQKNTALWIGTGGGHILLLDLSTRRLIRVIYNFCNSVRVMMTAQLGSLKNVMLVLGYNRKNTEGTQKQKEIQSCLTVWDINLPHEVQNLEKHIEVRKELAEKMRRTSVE
Sequence of FLT4/VEGFR3 (P35916 25-1363): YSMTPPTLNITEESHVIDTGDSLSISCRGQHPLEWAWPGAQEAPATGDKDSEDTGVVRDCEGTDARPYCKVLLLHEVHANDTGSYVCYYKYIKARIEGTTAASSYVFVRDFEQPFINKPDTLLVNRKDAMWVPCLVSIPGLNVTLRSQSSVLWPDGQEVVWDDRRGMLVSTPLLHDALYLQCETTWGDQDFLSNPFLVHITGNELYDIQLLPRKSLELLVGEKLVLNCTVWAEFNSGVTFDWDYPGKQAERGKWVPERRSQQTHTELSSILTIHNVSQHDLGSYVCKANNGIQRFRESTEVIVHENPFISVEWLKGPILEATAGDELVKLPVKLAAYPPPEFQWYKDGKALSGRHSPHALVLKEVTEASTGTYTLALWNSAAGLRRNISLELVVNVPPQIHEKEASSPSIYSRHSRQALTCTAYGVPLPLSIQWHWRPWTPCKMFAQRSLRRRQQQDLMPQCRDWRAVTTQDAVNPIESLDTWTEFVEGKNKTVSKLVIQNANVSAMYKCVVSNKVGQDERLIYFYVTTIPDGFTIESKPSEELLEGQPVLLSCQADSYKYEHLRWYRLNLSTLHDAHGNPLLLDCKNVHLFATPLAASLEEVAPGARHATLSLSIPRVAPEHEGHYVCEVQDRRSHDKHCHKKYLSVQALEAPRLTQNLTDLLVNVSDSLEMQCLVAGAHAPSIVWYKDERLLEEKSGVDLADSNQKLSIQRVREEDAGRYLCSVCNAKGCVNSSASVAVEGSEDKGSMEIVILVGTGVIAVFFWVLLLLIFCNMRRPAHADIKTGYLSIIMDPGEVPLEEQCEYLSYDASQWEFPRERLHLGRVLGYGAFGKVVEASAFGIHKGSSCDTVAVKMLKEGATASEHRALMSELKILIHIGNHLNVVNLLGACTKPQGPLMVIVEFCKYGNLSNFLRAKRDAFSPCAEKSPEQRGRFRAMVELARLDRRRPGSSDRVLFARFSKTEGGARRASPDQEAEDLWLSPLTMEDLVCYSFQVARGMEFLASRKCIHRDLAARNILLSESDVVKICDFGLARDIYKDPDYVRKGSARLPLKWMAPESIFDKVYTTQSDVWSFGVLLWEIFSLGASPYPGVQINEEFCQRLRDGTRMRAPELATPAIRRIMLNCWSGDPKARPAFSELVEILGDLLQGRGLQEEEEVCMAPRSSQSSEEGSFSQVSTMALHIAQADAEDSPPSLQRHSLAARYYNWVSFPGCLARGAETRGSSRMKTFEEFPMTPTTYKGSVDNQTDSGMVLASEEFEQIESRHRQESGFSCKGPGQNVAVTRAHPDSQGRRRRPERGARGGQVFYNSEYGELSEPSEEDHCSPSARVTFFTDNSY

In the case of CCOc1cc(C(C)(C)C)ccc1C1=N[C@@](C)(c2ccc(Cl)cc2)[C@@](C)(c2ccc(Cl)cc2)N1C(=O)N1CCN(CCCS(C)(=O)=O)CC1 [R7112], the proliferation after washout (RPE1 cells) is reported as “led to resumption of proliferation” and the p53 levels (p53) is reported as “raised p53 levels”.
For C[S+]([O-])c1ccc(-c2nc(-c3ccncc3)c(-c3ccc(F)cc3)[nH]2)cc1 (stereo not shown) [SB203580], the “phosphorylation of MAPKAPK-2 by p38” value (p38) was “blocks phosphorylation of MAPKAPK-2”.
In the case of COc1c(Nc2cc(C)[nH]n2)nc(Sc2ccc(S(=O)(=O)Cc3cccc([N+](=O)[O-])c3F)cc2F)nc1N1CCCCC1 [Centrinone-B, 2-((2-fluoro-4-((2-fluoro-3-nitrobenzyl)sulfonyl)phenyl)thio)-5-methoxy-N-(5-methyl-1H-pyrazol-3-yl)-6-(piperidin-1-yl)pyrimidin-4-amine], the Ki [1] is reported as 0.6 nM and 0.59 nM, the Ki [2] is reported as 498 nM and the “Plk4 selectivity, Ki(Plk4 G95L)/Ki(Plk4)” value [2] is reported as 847. The Ki (human Aurora A) was 1240 nM, the “Plk4 selectivity, Ki(Aurora A)/Ki(Plk4)” value (human Aurora A) was 2108 and the Ki (Aurora B) was 5600 nM. The “Plk4 selectivity, Ki(Aurora B)/Ki(Plk4)” value (Aurora B) was 9523, the “Plk4 selectivity, Ki(TNK1)/Ki(Plk4)” value (TNK1) was 10 and the Ki (TNK1; [3]) was 6.04 nM. For the same compound, the “Plk4 selectivity, Ki(LRRK2)/Ki(Plk4)” value (LRRK2) was 13, the Ki (LRRK2; [3]) was 7.66 nM and the “Plk4 selectivity, Ki(ROS/ROS1)/Ki(Plk4)” value (ROS/ROS1) was 153. For the same compound, the Ki (ROS/ROS1; [3]) was 90.1 nM, the “Plk4 selectivity, Ki(FLT4/VEGFR3)/Ki(Plk4)” value (FLT4/VEGFR3) was 99 and the Ki (FLT4/VEGFR3; [3]) was 58 nM. For the same compound, the “Plk4 selectivity, Ki(RET)/Ki(Plk4)” value (RET) was 332, the Ki (RET; [3]) was 195 nM and the “Plk4 selectivity, Ki(JAK2)/Ki(Plk4)” value (JAK2) was greater than 847. For the same compound, the Ki (JAK2; [3]) was greater than 500 nM, the “Plk4 selectivity, Ki(SRPK1)/Ki(Plk4)” value (SRPK1) was greater than 847 and the Ki (SRPK1; [3]) was greater than 500 nM. It also gave a centrosome depletion at (centrosomes in cells) of 500 nM.
